Residues, ends and D or L forms follow the SMILES beside them.
Tested on: drug-resistant Mycobacterium tuberculosis
Settings: 5 micrograms per ml

CC(C)[C@H](NC(=O)[C@H](CC(=O)O)NC(=O)[C@H](CCCCN)NC(=O)[C@@H](N)CCCN=C(N)N)C(=O)N[C@@H](Cc1ccc(O)cc1)C(=O)O [Thymopentin, Arg-Lys-Asp-Val-Tyr-OH] (H-RKDVY-OH)
% inhibition: 0.0%
